Results taken from patent US9724350B2, “N,6-bis(aryl or heteroaryl)-1,3,5-triazine-2,4-diamine compounds as IDH2 mutants inhibitors for the treatment of cancer” (Agios Pharmaceuticals, Inc., priority 2013, dated 2017).

How the values were obtained:
[1] = tested on: U87MG pLVX-IDH2 R140Q-neo cells; test: U87MG pLVX-IDH2 R140Q-neo cell based assay (2-HG by LC-MS); conditions: Homo sapiens, U-87 MG
Procedure: U87MG pLVX-IDH2 R140Q-neo cells are grown in T125 flasks in DMEM containing 10% FBS, 1× penicillin/streptomycin and 500 μg/mL G418. They are harvested by trypsin and seeded into 96 well white bottom plates at a density of 5000 cell/well in 100 μl/well in DMEM with 10% FBS. No cells are plated in columns 1 and 12. Cells are incubated overnight at 37° C. in 5% CO2. The next day compounds are made up at 2× concentration and 100 ul are added to each cell well. The final concentration of DMSO is 0.2% and the DMSO control wells are plated in row G. The plates are then placed in the incubator for 48 hours. At 48 hours, 100 ul of media is removed from each well and analyzed by LC-MS for 2-HG concentrations. The cell plate is placed back in the incubator for another 24 hours. At 72 hours post compound addition, 10 mL/plate of Promega Cell Titer Glo reagent is thawed and mixed. The cell plate is removed from the incubator and allowed to equilibrate to room temperature. Then 100 ul of reagent is added to each well of media. The cell plate is then placed on an orbital shaker for 10 minutes and then allowed to sit at room temperature for 20 minutes. The plate is then read for luminescence with an integration time of 500 ms to determine compound effects on growth inhibition.

IDH2 R140Q = biological target: T1, IDH2 R140Q (Homo sapiens, UniProt P48735, R140Q); test: IDH2 R140Q enzymatic assay (cofactor depletion, diaphorase/resazurin); type: biochemical; conditions: 16 hours preincubation time
T1 sequence (P48735 40-452 R140Q): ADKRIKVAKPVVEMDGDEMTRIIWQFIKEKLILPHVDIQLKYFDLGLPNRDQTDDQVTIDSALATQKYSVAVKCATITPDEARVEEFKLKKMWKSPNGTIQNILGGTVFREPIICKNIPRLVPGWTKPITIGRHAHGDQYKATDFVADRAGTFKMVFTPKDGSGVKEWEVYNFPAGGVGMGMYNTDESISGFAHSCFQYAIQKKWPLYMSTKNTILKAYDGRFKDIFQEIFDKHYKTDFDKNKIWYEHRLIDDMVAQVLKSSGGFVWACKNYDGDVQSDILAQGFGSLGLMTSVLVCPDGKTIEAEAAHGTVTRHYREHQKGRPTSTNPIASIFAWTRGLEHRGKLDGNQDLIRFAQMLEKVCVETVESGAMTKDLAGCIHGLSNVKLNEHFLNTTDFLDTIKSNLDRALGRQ

IC50 [1]: < 50 nM | IC50 (IDH2 R140Q): < 50 nM
Compound: Nc1nc(Nc2ccnc(C(F)(F)F)c2)nc(-c2cccc(C(F)(F)F)n2)n1 [Compound 378, 6-(6-(trifluoromethyl)pyridin-2-yl)-N2-(2-(trifluoromethyl)pyridin-4-yl)-1,3,5-triazine-2,4-diamine]
